Data published in patent US10414811B2, “Protease-resistant lipidated GLP-1 analogs” (MEDIMMUNE LIMITED, priority 2015, dated 2019).
Where two headings read alike, the source gives them in different places. Numbered stars: 1 amine (or outer) side, 2 acyl side, 3 side chain; on linkers, the order of the positions; unused ones are H or OH. Square brackets hold non-standard residues; d marks the D form. Side chains are listed from the residue outwards. Peptide text beside a SMILES is read from it. * marks the point of attachment. γGlu = O=C(O)[C@H](CCC(=O)[*:2])N[*:1]; αMeF = C[C@](N)(Cc1ccccc1)C(=O)O; αMeK = C[C@](N)(CCCCN)C(=O)O; Lauroyl = CCCCCCCCCCCC(=O)*; αMeS = C[C@](N)(CO)C(=O)O; AEEA = NCCOCCOCC(=O)O; Aib = CC(C)(N)C(=O)O

How the values were obtained:
Type in all cases: cell-based
[1] = target: T1, human GLP-1 receptor (GLP-1R) (Homo sapiens, UniProt P43220); assay: cAMP assay, human GLP-1R cells; conditions: tris-lipidated peptides
T1 construct: expressed in transfected cells
T1 sequence (P43220 24-463): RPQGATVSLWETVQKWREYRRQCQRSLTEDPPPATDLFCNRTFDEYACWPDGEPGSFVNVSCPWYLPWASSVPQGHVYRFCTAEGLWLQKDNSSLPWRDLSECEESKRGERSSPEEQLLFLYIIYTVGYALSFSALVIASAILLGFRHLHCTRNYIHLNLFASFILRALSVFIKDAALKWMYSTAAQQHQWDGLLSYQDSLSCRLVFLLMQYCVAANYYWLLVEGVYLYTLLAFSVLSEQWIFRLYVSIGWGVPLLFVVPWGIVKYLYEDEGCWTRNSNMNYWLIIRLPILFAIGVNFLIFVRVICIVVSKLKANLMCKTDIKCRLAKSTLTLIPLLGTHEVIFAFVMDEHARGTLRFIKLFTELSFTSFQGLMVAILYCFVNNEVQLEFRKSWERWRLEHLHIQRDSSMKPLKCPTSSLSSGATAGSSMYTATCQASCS
How it was run: (§1)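 Peptide-stimulated cAMP measured by two-step HTRF after a 30 min room-temperature incubation with receptor-expressing cells (hGLP-1R, hGIPR at 1×10^5 cells/ml; hGCGR at 2×10^5 cells/ml). Duplicate dilutions; EC50 from 4-parameter logistic fit of % Delta F.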

GLP-1R (INS1e assay) = target: T2, GLP-1R (INS1e assay) (Rattus norvegicus, UniProt P32301); assay: INS1e assay, cAMP activity at GLP-1R; conditions: tris-lipidated peptides
T2 construct: endogenous in cells; host or cells: INS-1E cells
T2 sequence (P32301 22-463): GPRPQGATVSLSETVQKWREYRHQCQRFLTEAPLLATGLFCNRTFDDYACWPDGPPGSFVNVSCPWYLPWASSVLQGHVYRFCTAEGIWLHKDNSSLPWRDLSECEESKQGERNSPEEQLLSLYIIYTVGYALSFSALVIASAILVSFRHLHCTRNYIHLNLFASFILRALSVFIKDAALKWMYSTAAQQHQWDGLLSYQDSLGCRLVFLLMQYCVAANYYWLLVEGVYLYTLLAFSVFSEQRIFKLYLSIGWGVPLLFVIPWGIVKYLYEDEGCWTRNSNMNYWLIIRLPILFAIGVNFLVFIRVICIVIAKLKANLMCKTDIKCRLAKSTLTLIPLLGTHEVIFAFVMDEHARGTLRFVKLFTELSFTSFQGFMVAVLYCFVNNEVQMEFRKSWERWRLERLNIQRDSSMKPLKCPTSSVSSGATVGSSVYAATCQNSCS
How it was run: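 It pairs cAMP-d2 acceptor with anti-cAMP cryptate donor, both prepared 1/20 in conjugate/lysis buffer, applied as a two-step protocol.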

[2] = target: T3, human glucagon receptor (GCGR) (Homo sapiens, UniProt P47871); assay: cAMP assay, human GCGR cells; conditions: tris-lipidated peptides; first replicate; read-out: Primary assay EC50 Gluc-R (n1)
T3 construct: expressed in transfected cells
T3 sequence (P47871 26-477): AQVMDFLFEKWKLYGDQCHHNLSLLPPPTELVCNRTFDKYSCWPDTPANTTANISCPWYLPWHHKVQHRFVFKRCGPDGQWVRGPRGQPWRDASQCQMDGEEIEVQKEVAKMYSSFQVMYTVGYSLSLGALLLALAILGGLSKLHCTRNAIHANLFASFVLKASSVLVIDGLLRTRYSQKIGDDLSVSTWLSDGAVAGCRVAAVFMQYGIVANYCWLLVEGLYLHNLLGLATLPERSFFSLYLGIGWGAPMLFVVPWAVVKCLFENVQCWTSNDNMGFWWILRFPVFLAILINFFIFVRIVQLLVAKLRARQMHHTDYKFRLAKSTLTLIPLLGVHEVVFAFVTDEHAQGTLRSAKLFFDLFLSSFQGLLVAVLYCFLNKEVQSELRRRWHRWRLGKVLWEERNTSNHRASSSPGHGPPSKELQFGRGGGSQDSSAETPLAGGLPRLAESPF
How it was run: as §1

[3] = target: T4, human glucose-dependent insulinotropic peptide receptor (GIPR) (Homo sapiens, UniProt P48546); assay: cAMP assay, human GIPR cells; conditions: tris-lipidated peptides
T4 construct: expressed in transfected cells
T4 sequence (P48546 22-466): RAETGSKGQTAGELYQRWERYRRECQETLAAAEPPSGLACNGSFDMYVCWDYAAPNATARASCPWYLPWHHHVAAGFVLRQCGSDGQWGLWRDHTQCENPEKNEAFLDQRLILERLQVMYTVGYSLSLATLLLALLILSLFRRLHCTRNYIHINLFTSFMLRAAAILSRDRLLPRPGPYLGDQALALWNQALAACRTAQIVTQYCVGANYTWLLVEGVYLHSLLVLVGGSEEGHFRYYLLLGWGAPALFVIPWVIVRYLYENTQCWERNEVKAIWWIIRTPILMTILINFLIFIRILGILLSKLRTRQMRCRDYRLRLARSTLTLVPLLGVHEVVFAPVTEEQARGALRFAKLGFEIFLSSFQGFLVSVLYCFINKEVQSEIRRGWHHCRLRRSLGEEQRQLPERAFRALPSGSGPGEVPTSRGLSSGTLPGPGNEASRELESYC
How it was run: as §1

[4] = mean of n1 and n2, read-out: Primary assay EC50 Mean pM GLP-1R
[5] = replicate n1, read-out: Primary assay EC50 GLP-1R n1
[6] = replicate n2, read-out: Primary assay EC50 GLP-1R n2
[7] = mean of n1 and n2, read-out: INS1e assay EC50 Mean pM GLP-1R
[8] = replicate n1, read-out: INS1e assay EC50 GLP-1R n1
[9] = replicate n2, read-out: INS1e assay EC50 GLP-1R n2

Row | EC50 [1, 4] | EC50 [1, 5] | EC50 [1, 6] | EC50 (GLP-1R (INS1e assay); [7]) | EC50 (GLP-1R (INS1e assay); [8]) | EC50 (GLP-1R (INS1e assay); [9]) | EC50 [2] | EC50 ([3]; second replicate, read-out: Primary assay EC50 GIP-R (n2)) | EC50 ([3]; first replicate, read-out: Primary assay EC50 GIP-R (n1)) | SMILES
1 | 41.4 pM | 36.3 pM | 46.4 pM | 3370 pM | 3070 pM | 3670 pM | 20 nM | 20 nM |  | CCCCCCCCCCCC(=O)N[C@@H](CCC(=O)NCCOCCOCC(=O)NCCOCCOCC(=O)NCCCC[C@H](NC(=O)[C@H](C)NC(=O)[C@@H](NC(=O)[C@H](Cc1ccccc1)NC(=O)[C@H](CCCCNC(=O)COCCOCCNC(=O)COCCOCCNC(=O)CC[C@H](NC(=O)CCCCCCCCCCC)C(=O)O)NC(=O)[C@](C)(CCCCN)NC(=O)[C@H](C)NC(=O)[C@H](C)NC(=O)[C@H](CCC(=O)O)NC(=O)CNC(=O)[C@H](CCC(=O)O)NC(=O)[C@H](CC(C)C)NC(=O)[C@H](Cc1ccc(O)cc1)NC(=O)[C@H](CO)NC(=O)[C@H](CO)NC(=O)[C@H](CCCCNC(=O)COCCOCCNC(=O)COCCOCCNC(=O)CC[C@H](NC(=O)CCCCCCCCCCC)C(=O)O)NC(=O)[C@H](CC(=O)O)NC(=O)[C@H](CO)NC(=O)[C@@H](NC(=O)[C@](C)(Cc1ccccc1)NC(=O)[C@H](CO)NC(=O)CNC(=O)[C@H](CCC(=O)O)NC(=O)C(C)(C)NC(=O)[C@@H](N)Cc1c[nH]cn1)[C@@H](C)O)[C@@H](C)CC)C(=O)N[C@H](C(=O)N[C@H](C(=O)N[C@@H](CCC(=O)O)C(=O)NCC(=O)NCC(N)=O)C(C)C)C(C)C)C(=O)O [compound 458] (H-H[Aib]EGS[αMeF]TSDK([AEEA-AEEA-γGlu-Lauroyl])SSYLEGEAA[αMeK]K([AEEA-AEEA-γGlu-Lauroyl])FIAK([AEEA-AEEA-γGlu-Lauroyl])VVEGG-NH2; N-terminus assumed)
2 | 36.3 pM | 28.3 pM | 44.2 pM | 5860 pM | 8570 pM | 3150 pM | 20 nM |  | 20 nM | CCCCCCCCCCCC(=O)N[C@@H](CCC(=O)NCCOCCOCC(=O)NCCOCCOCC(=O)NCCCC[C@H](NC(=O)[C@H](CO)NC(=O)[C@](C)(CO)NC(=O)[C@@H](NC(=O)[C@H](CC(=O)O)NC(=O)[C@H](CO)NC(=O)[C@@H](NC(=O)[C@](C)(Cc1ccccc1)NC(=O)[C@H](CO)NC(=O)CNC(=O)[C@H](CCC(=O)O)NC(=O)C(C)(C)NC(=O)[C@@H](N)Cc1c[nH]cn1)[C@@H](C)O)C(C)C)C(=O)N[C@@H](CC(C)C)C(=O)N[C@@H](CCC(=O)O)C(=O)NCC(=O)N[C@@H](CCC(=O)O)C(=O)N[C@@H](C)C(=O)N[C@@H](C)C(=O)N[C@@](C)(CCCCN)C(=O)N[C@@H](CCCCNC(=O)COCCOCCNC(=O)COCCOCCNC(=O)CC[C@H](NC(=O)CCCCCCCCCCC)C(=O)O)C(=O)N[C@@H](Cc1ccccc1)C(=O)N[C@H](C(=O)N[C@@H](C)C(=O)N[C@@H](Cc1ccccc1)C(=O)N[C@@H](CCCCNC(=O)COCCOCCNC(=O)COCCOCCNC(=O)CC[C@H](NC(=O)CCCCCCCCCCC)C(=O)O)C(=O)N[C@H](C(=O)N[C@@H](CCC(=O)O)C(=O)NCC(=O)NCC(N)=O)C(C)C)[C@@H](C)CC)C(=O)O [compound 482] (H-H[Aib]EGS[αMeF]TSDV[αMeS]SK([AEEA-AEEA-γGlu-Lauroyl])LEGEAA[αMeK]K([AEEA-AEEA-γGlu-Lauroyl])FIAFK([AEEA-AEEA-γGlu-Lauroyl])VEGG-NH2)
